How the values were obtained:
Type in all cases: in vivo
[1] = test system: cattle tick larvae (Rhipicephalus microplus), strain Parkhurst, resistant against synthetic pyrethroids; experiment: Rhipicephalus (Boophilus) microplus in-vitro contact test, larval cattle tick; details: 5 μg/cm^2 (=500 g/ha), after 48 hours, read-out: efficacy (larvae dead or moribund)
In short: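 Efficacy, 100% meaning all larvae dead or moribund, was judged at 48 h from loss of negative geotactic climbing. Larvae of the Parkhurst strain, 20–50 per tube, were exposed at 27° C and 85% humidity to acetone-coated tube surfaces; 900 ppm corresponded to 5 μg/cm^2.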

[2] = test system: adult cat fleas (Ctenocephalides felis); experiment: Ctenocephalides felis in-vitro contact test, adult cat flea; details: 5 μg/cm^2 (=500 g/ha), after 48 hours, read-out: efficacy (fleas dead or moribund)
In short: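 Efficacy (%) counts fleas that are dead or moribund, meaning unable to escape heat (45-50 °C, ≤5 min) by climbing. Scoring was done 48 h after 5-10 adults were placed at room temperature in glass tubes. The tubes carried a dried acetone film of compound, 5 μg/cm^2 at 900 ppm.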

[3] = test system: larvae of the banded cucumber beetle (Diabrotica balteata); experiment: Diabrotica balteata spray test; details: 168 h, 100 g/ha (=32 μg/well), after 7 days, wheat seeds, read-out: efficacy (seedlings grown up)
In short: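 Efficacy (%) read at day 7: 100% means seedlings grew like untreated, uninfested controls; 0% means no seedlings grew. Wheat seeds germinated 1 day on agar, sprayed with emulsified compound solution (1000 ppm emulsifier in water), then each well infested with 10-20 larvae.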

[4] = test system: southern root-knot nematode (Meloidogyne incognita); experiment: Meloidogyne incognita test; details: 336 h, after 14 days, read-out: nematicidal activity (gall formation)
Description: Solvent: 125.0 parts by weight of acetone
To produce a suitable preparation of active compound, 1 part by weight of active compound is mixed with the stated amount of solvent, and the concentrate is diluted with water to the desired concentration.
Vessels are filled with sand, a solution of the active ingredient, a suspension containing eggs and larvae of the southern root-knot nematode (Meloidogyne incognita) and salad seeds. The salad seeds germinate and the seedlings grow. Galls develop in the roots.
After 14 days the nematicidal activity is determined on the basis of the percentage of gall formation. 100% means no galls were found and 0% means the number of galls found on the roots of the treated plants was equal to that in untreated control plants.

[5] = test system: larvae of the southern green stink bug (Nezara viridula); experiment: Nezara viridula spray test; details: in Hordeum vulgare, 96 h
In short: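 Percent mortality of southern green stink bug larvae read 4 days after spraying infested Hordeum vulgare. Test solutions: compound in acetone plus dimethylformamide, diluted with emulsifier-containing water (1000 ppm alkylarylpolyglycol ether).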

[6] = test system: fall armyworm larvae (Spodoptera frugiperda); experiment: Spodoptera frugiperda spray test (maize leaf sections); details: 168 h
In short: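 Percent kill of Spodoptera frugiperda larvae was recorded 7 days after infesting dried, treated maize leaf sections. Spray solutions were made from an acetone/DMF compound preparation diluted with 1000 ppm emulsifier-containing water.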

[7] = test system: cattle ticks (Rhipicephalus microplus) strain Parkhurst, SP-resistant; experiment: Rhipicephalus (Boophilus) microplus dip test; details: 100 ppm, egg deposition after 7 days
Description: Test animal: cattle ticks (Rhipicephalus microplus) strain Parkhurst, SP-resistant
Solvent: dimethyl sulfoxide
To produce a suitable preparation of active compound, 10 mg of active compound are dissolved in 0.5 mL solvent, and the concentrate is diluted with water to the desired concentration.
This compound solution is pipetted into tubes. 8-10 engorged, adult, female cattle ticks (Rhipicephalus microplus) are placed in perforated tubes. These tubes are immersed in the aqueous compound solution until the ticks are completely moistened. After the liquid has drained off, the ticks are transferred to a filter paper in a plastic tray and stored in a climate chamber.
After 7 days egg deposition of fertile eggs is monitored. Eggs where fertility is not visible are stored in a climate chamber till hatching after about 42 days. An efficacy of 100% means all eggs are infertile; 0% means all eggs are fertile.

[8] = test system: adult engorged female ticks (Rhipicephalus microplus); experiment: Rhipicephalus (Boophilus) microplus injection test; details: 168 h, egg deposition after 7 days, read-out: efficacy (infertile eggs); for pest or weed control at 0.004 mg: 4 μg/animal; for pest or weed control at 0.02 mg: 20 μg/animal
In short: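 Efficacy is the share of infertile eggs: 100% means none are fertile, 0% means all are fertile. Egg deposition was checked 7 days after injecting 1 μL of DMSO-diluted compound into the abdomen of five engorged female R. microplus, with doubtful eggs kept about 42 days to hatching. The stock was 10 mg in 0.5 mL DMSO.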

[9] = test system: adult unfed cat fleas (Ctenocephalides felis); experiment: Ctenocephalides felis oral test; details: 48 h, 100 ppm in cattle blood, after 2 days
In short: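 Percent flea mortality recorded at 2 days. Compound was dissolved in dimethyl sulfoxide and diluted into cattle blood, which ~20 unfed adult cat fleas ingested through parafilm from a 37°C-heated chamber, their own chamber kept at room temperature.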

[10] = test system: caterpillars of the fall army worm (Spodoptera frugiperda); experiment: Spodoptera frugiperda spray test (cotton leaves); details: 168 h
In short: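 Cotton leaves sprayed with compound in water/DMF with 1000 ppm alkylaryl polyglycol ether emulsifier, ammonium salt and/or penetration enhancer at 1000 ppm added if necessary, then infested with fall armyworm caterpillars. Mortality in % scored after 7 days; 100% means all caterpillars killed.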

[11] = test system: adult brown dog ticks (Rhipicephalus sanguineus); experiment: Rhipicephalus sanguineus in-vitro contact test with adult brown dog ticks; details: after 48 hours, read-out: efficacy (ticks dead or moribund); for pest or weed control at 1 µg/cm2, 100 g/ha: 1 μg/cm^2 (=100 g/ha); for pest or weed control at 5 µg/cm2, 500 g/ha: 5 μg/cm^2 (=500 g/ha)
In short: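 Efficacy is the percentage of adult ticks dead or moribund, meaning immotile or uncoordinated and unable to escape 45-50° C. heat within 5 min. Read 48 h after 5-10 ticks were enclosed at room temperature in acetone-coated glass tubes. Dose 5 μg/cm^2, from a 900 ppm coating solution.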

[12] = test system: green peach aphid (Myzus persicae); experiment: Myzus persicae spray test; details: foliar, 120 h, 100 g/ha, after 5 days, Chinese cabbage leaf disks
In short: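 Chinese cabbage leaf disks carrying all instars of Myzus persicae were sprayed with compound. The formulation was acetone/dimethylformamide diluted in water with 1000 ppm alkylarylpolyglycol ether emulsifier. Percent mortality was scored after 5 days, with 100% meaning all aphids killed.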

[13] = test system: brown planthopper (Nilaparvata lugens); experiment: Nilaparvata lugens spray test; details: in Oryza sativa, 96 h
In short: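 Rice plants (Oryza sativa) sprayed with compound in acetone/DMF diluted in water containing 1000 ppm alkylarylpolyglycol ether emulsifier, then infested with planthoppers. Mortality % scored after 4 days (100% = all killed, 0% = none killed).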

[14] = test system: green peach aphid (Myzus persicae); experiment: Myzus persicae oral test; details: 120 h
In short: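 Readout: % mortality at day 5, where 100% = all aphids dead and 0% = none dead. Feeding via parafilm membrane over compound in IPL41 medium (33%+15% sugar); mixed-age population. Stock in acetone (1:100 w/w), water-diluted.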

Compound | pest or weed control at 5 µg/cm2 [1] [%] | pest or weed control at 5 µg/cm2 [2] [%] | pest or weed control at 32 µg/disc, 100 g/ha [3] [%] | pest or weed control at 20 ppm [4] [%] | mortality at 500 g/ha [5] [%] | mortality at 100 g/ha [6] [%] | efficacy (infertile eggs) [7] [%] | pest or weed control at 0.004 mg [8] [%] | pest or weed control at 0.02 mg [8] [%] | mortality at 100 ppm [9] [%] | mortality at 20 ppm [10] [%] | pest or weed control at 1 µg/cm2, 100 g/ha [11] [%] | pest or weed control at 5 µg/cm2, 500 g/ha [11] [%] | mortality at 100 g/ha [12] [%] | mortality at 500 g/ha [13] [%] | mortality at 4 ppm [14] [%] | mortality at 100 g/ha [5] [%] | mortality at 100 g/ha [13] [%]
C=CC(=O)Nc1nc(C(C)NC(=O)c2cc(Cl)cc(C(F)(F)F)c2)n(-c2ccc(Cl)cn2)n1 (stereo not shown) [I-123] | 90 | 100 | 100 | 90 | 100 | 100 | – | – | – | – | – | – | – | – | – | – | – | –
CC(NC(=O)c1cc(Cl)cc(S(C)(=O)=O)c1)c1nc(NC(=O)C2CC2)nn1-c1ccc(Cl)cn1 (stereo not shown) [I-013] | 90 | – | – | – | – | – | 80 | 100 | 100 | 100 | 100 | – | – | – | – | – | – | –
CNc1nc([C@H](C)NC(=O)c2cc(Br)cc(OC(F)(F)F)c2)n(-c2ncccn2)n1 [I-130] | 100 | 100 | 100 | 90 | 100 | 100 | – | – | – | – | 100 | 100 | 100 | 100 | 90 | – | – | –
C[C@H](NC(=O)c1cc(C(F)(F)F)cc(C(F)(F)F)c1)c1nc(N2CCOCC2)nn1-c1ncccn1 [I-145, N-[(1S)-1-(5-morpholino-2-pyrimidin-2-yl-1,2,4-triazol-3-yl)ethyl]-3,5-bis(trifluoromethyl)benzamide] | 100 | 80 | 100 | 100 | 100 | 100 | – | – | – | – | – | – | – | – | – | – | – | –
CNc1nc([C@H](C)NC(=O)c2cc(OC(F)(F)F)cc(C3CC3)c2)n(-c2ncccn2)n1 [I-132] | 100 | 100 | 100 | 90 | 100 | 100 | – | – | – | – | 100 | 100 | 100 | 90 | – | – | – | –
CNC(=O)c1nc(C(C)NC(=O)c2cc(Cl)cc(C(F)(F)F)c2)n(-c2ncccn2)n1 (stereo not shown) [I-077] | – | 90 | – | 90 | – | – | – | 100 | 100 | 100 | – | – | – | 90 | – | 100 | 100 | 90
CC(NC(=O)c1cc(C(F)(F)F)cc(C(F)(F)F)c1)c1nc(N(C)C(=O)OC(C)(C)C)nn1-c1ncccn1 (racemic) [I-009, tert-butyl N-[5-[1-[[3,5-bis(trifluoromethyl)benzoyl]amino]ethyl]-1-pyrimidin-2-yl-1,2,4-triazol-3-yl]-N-methyl-carbamate] | 100 | 90 | 100 | – | – | 100 | 80 | 100 | – | 100 | – | 80 | 100 | – | – | 100 | 100 | –
CC(NC(=O)c1cc(Cl)cc(C(F)(F)F)c1)c1nc(C(=O)NC2CC2)nn1-c1ncccn1 (single isomer, unassigned) [I-076, 5-[1-[[3-chloro-5-(trifluoromethyl)benzoyl]amino]ethyl]-N-cyclopropyl-1-pyrimidin-2-yl-1,2,4-triazole-3-carboxamide] | 90 | 100 | – | 90 | – | 100 | – | 100 | 100 | 100 | – | – | – | 90 | – | 100 | 100 | –
C[C@H](NC(=O)c1cc(Br)cc(Br)c1)c1nc(N2CCOCC2)nn1-c1ncccn1 [I-144] | 100 | 90 | 100 | 90 | – | – | – | – | – | – | – | – | – | – | – | – | – | –
CC(NC(=O)c1cc(Cl)cc(C(F)(F)F)c1)c1nc(C(=O)NC2CC2)nn1-c1ccc(C#N)cn1 (stereo not shown) [I-078] | 90 | – | 100 | 90 | – | 100 | – | 100 | 100 | 100 | – | – | – | – | – | 90 | – | –
CC(NC(=O)c1cc(Cl)cc(C(F)(F)F)c1)c1nc(N)nn1-c1ncccn1 (racemic) [I-004, N-[1-(5-amino-2-pyrimidin-2-yl-1,2,4-triazol-3-yl)ethyl]-3-chloro-5-(trifluoromethyl)benzamide] | 90 | 100 | 100 | – | – | – | 80 | 100 | – | 100 | – | – | – | – | – | 100 | – | –
